Data from the NIST ThermoML archive (doi:10.1016/j.jct.2004.09.014).
Numbers after ± are expanded uncertainties.

Assay: xn = mol fraction of the nth substance listed
Conditions: 101.3 kPa, Liquid

COCCOCCOCCO [2-[2-(2-methoxyethoxy)ethoxy]ethanol] + CCOC(C)(C)C
mass density [kg/m3]
Conditions | 293.15 K | 298.15 K | 303.15 K | 308.15 K | 313.15 K
x2 = 0 | 1047.29 ± 1.9 | 1042.97 ± 1.9 | 1038.65 ± 1.9 | 1034.33 ± 1.9 | 1030.01 ± 2
x2 = 0.0504 | 1037.46 ± 1.8 | 1032.75 ± 1.8 | 1028.05 ± 1.8 | 1023.44 ± 1.9 | 1018.75 ± 1.9
x2 = 0.1 | 1026.36 ± 1.7 | 1021.48 ± 1.7 | 1016.59 ± 1.8 | 1011.83 ± 1.8 | 1006.97 ± 1.8
x2 = 0.1509 | 1014.18 ± 1.6 | 1009.14 ± 1.7 | 1004.22 ± 1.7 | 999.35 ± 1.7 | 994.34 ± 1.7
x2 = 0.2025 | 1000.97 ± 1.6 | 995.85 ± 1.6 | 990.92 ± 1.6 | 985.93 ± 1.6 | 980.82 ± 1.6
x2 = 0.2489 | 988.73 ± 1.5 | 983.55 ± 1.5 | 978.6 ± 1.5 | 973.56 ± 1.5 | 968.35 ± 1.6
x2 = 0.3007 | 974.54 ± 1.4 | 969.31 ± 1.4 | 964.34 ± 1.4 | 959.27 ± 1.5 | 953.99 ± 1.5
x2 = 0.3511 | 960.3 ± 1.3 | 954.96 ± 1.3 | 949.94 ± 1.4 | 944.86 ± 1.4 | 939.57 ± 1.4
x2 = 0.3999 | 946.13 ± 1.2 | 940.72 ± 1.3 | 935.65 ± 1.3 | 930.52 ± 1.3 | 925.15 ± 1.3
x2 = 0.4508 | 930.95 ± 1.2 | 925.44 ± 1.2 | 920.33 ± 1.2 | 915.15 ± 1.2 | 909.71 ± 1.3
x2 = 0.5001 | 915.87 ± 1.1 | 910.23 ± 1.1 | 905.09 ± 1.1 | 899.84 ± 1.2 | 894.39 ± 1.2
x2 = 0.5493 | 900.4 ± 1 | 894.71 ± 1.1 | 889.55 ± 1.1 | 884.29 ± 1.1 | 878.77 ± 1.1
x2 = 0.6 | 884.14 ± 0.97 | 878.36 ± 1 | 873.18 ± 1 | 867.9 ± 1.1 | 862.36 ± 1.1
x2 = 0.6503 | 867.65 ± 0.91 | 861.88 ± 0.94 | 856.69 ± 0.98 | 851.4 ± 1 | 845.82 ± 1
x2 = 0.6998 | 851.17 ± 0.86 | 845.39 ± 0.89 | 840.21 ± 0.93 | 834.91 ± 0.96 | 829.29 ± 1
x2 = 0.7491 | 834.48 ± 0.81 | 828.67 ± 0.84 | 823.52 ± 0.88 | 818.24 ± 0.91 | 812.58 ± 0.95
x2 = 0.7999 | 816.94 ± 0.76 | 811.16 ± 0.8 | 806.01 ± 0.83 | 800.74 ± 0.87 | 795.06 ± 0.91
x2 = 0.8509 | 798.94 ± 0.72 | 793.17 ± 0.76 | 788.08 ± 0.79 | 782.84 ± 0.83 | 777.19 ± 0.87
x2 = 0.9001 | 780.97 ± 0.68 | 775.22 ± 0.72 | 770.16 ± 0.76 | 764.98 ± 0.8 | 759.37 ± 0.84
x2 = 0.9498 | 761.89 ± 0.65 | 756.2 ± 0.69 | 751.24 ± 0.73 | 746.17 ± 0.77 | 740.68 ± 0.81

CCOC(C)(C)C [2-ethoxy-2-methylpropane] + COCCO
mass density [kg/m3]
Conditions | 293.15 K | 298.15 K | 303.15 K | 308.15 K | 313.15 K
x1 = 0.0501 | 950.05 ± 0.98 | 944.7 ± 1 | 939.45 ± 1.1 | 934.22 ± 1.1 | 928.99 ± 1.1
x1 = 0.1 | 936.06 ± 0.96 | 930.57 ± 0.99 | 925.31 ± 1 | 919.94 ± 1.1 | 914.61 ± 1.1
x1 = 0.1508 | 921.99 ± 0.93 | 916.4 ± 0.96 | 911.08 ± 1 | 905.73 ± 1 | 900.29 ± 1.1
x1 = 0.2 | 908.51 ± 0.9 | 902.92 ± 0.94 | 897.66 ± 0.97 | 892.25 ± 1 | 886.78 ± 1
x1 = 0.2512 | 894.84 ± 0.88 | 889.15 ± 0.91 | 883.86 ± 0.95 | 878.57 ± 0.98 | 873.09 ± 1
x1 = 0.299 | 882.19 ± 0.85 | 876.57 ± 0.89 | 871.27 ± 0.92 | 865.98 ± 0.96 | 860.41 ± 1
x1 = 0.3489 | 869.14 ± 0.83 | 863.45 ± 0.86 | 858.24 ± 0.9 | 852.9 ± 0.94 | 847.36 ± 0.97
x1 = 0.4 | 856.06 ± 0.8 | 850.34 ± 0.84 | 845.06 ± 0.88 | 839.8 ± 0.91 | 834.21 ± 0.95
x1 = 0.4503 | 843.79 ± 0.78 | 837.98 ± 0.82 | 832.77 ± 0.86 | 827.45 ± 0.89 | 821.87 ± 0.93
x1 = 0.499 | 832.46 ± 0.76 | 826.63 ± 0.8 | 821.36 ± 0.84 | 816.1 ± 0.87 | 810.51 ± 0.91
x1 = 0.55 | 821.14 ± 0.74 | 815.31 ± 0.78 | 810.08 ± 0.82 | 804.81 ± 0.85 | 799.19 ± 0.89
x1 = 0.61 | 808.56 ± 0.72 | 802.72 ± 0.76 | 797.49 ± 0.8 | 792.22 ± 0.83 | 786.6 ± 0.87
x1 = 0.6599 | 798.66 ± 0.7 | 792.76 ± 0.74 | 787.53 ± 0.78 | 782.25 ± 0.82 | 776.65 ± 0.86
x1 = 0.7 | 790.96 ± 0.69 | 785.07 ± 0.73 | 779.87 ± 0.77 | 774.61 ± 0.81 | 769.03 ± 0.84
x1 = 0.7511 | 781.59 ± 0.67 | 775.75 ± 0.71 | 770.56 ± 0.75 | 765.33 ± 0.79 | 759.73 ± 0.83
x1 = 0.8 | 773.01 ± 0.66 | 767.18 ± 0.7 | 762.01 ± 0.74 | 756.8 ± 0.78 | 751.25 ± 0.82
x1 = 0.8489 | 764.84 ± 0.65 | 759.04 ± 0.69 | 753.94 ± 0.73 | 748.76 ± 0.77 | 743.21 ± 0.8
x1 = 0.9 | 756.5 ± 0.63 | 750.81 ± 0.67 | 745.76 ± 0.71 | 740.66 ± 0.75 | 735.16 ± 0.79
x1 = 0.949 | 748.89 ± 0.62 | 743.23 ± 0.66 | 738.32 ± 0.7 | 733.24 ± 0.74 | 727.78 ± 0.78
x1 = 1 | 741.11 ± 0.61 | 735.59 ± 0.65 | 730.85 ± 0.69 | 725.98 ± 0.73 | 720.69 ± 0.77
